Experimental data: ChEMBL document CHEMBL1201862, “PubChem BioAssay data set” (2004)
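Interpolation was linear, between the two tested concentrations surrounding the appropriate level; five concentrations were tested over 48 hours in 96-well plates. GI50 = concentration required for 50% inhibition of growth.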 Activity calls are given as the source filed them. Cut-off read from the data, not from the text of the source: active = GI50 up to about 1.1 µM and inactive = higher. Square brackets hold non-standard residues; d marks the D form. Peptide text beside a SMILES is read from it. * marks the point of attachment. ξ: configuration not given here. ξW = NC(Cc1c[nH]c2ccccc12)C(=O)O; X29 = O=C(O)[C@H]1CCC[C@H]1N*; ξF = NC(Cc1ccccc1)C(=O)O; Boc = CC(C)(C)OC(=O)*; ξK = NCCCCC(N)C(=O)O; ξT = CC(O)C(N)C(=O)O; tBu = CC(C)(C)*

Legend:
Assay in all cases: DTP human tumour cell line panel, 48 h
NCI-H522 = system: NCI-H522
IGROV-1 = system: IGROV-1
TK-10 = system: TK-10
SW-620 = system: SW-620
MDA-MB-435 = system: MDA-MB-435
HOP-92 = system: HOP-92
CCRF-CEM = system: CCRF-CEM
SK-MEL-5 = system: SK-MEL-5
SN12C = system: SN12C
M14 = system: M14
SNB-75 = system: SNB-75
EKVX = system: EKVX
MCF7 = system: MCF7
786-0 = system: 786-0
SF-295 = system: SF-295
HCT-116 = system: HCT-116
SK-MEL-2 = system: SK-MEL-2
OVCAR-3 = system: OVCAR-3

Structure (SMILES) | GI50 (NCI-H522) | GI50 (IGROV-1) | GI50 (TK-10) | GI50 (SW-620) | GI50 (MDA-MB-435) | GI50 (HOP-92) | GI50 (CCRF-CEM) | GI50 (SK-MEL-5) | GI50 (SN12C) | GI50 (M14) | GI50 (SNB-75) | GI50 (EKVX) | GI50 (MCF7) | GI50 (786-0) | GI50 (SF-295) | GI50 (HCT-116) | GI50 (SK-MEL-2) | GI50 (OVCAR-3)
Cc1ccccc1NC(=O)Cc1csc(N/N=C2\C(=O)Nc3ccccc32)n1 | 17.7 µM (inactive) | 33.9 µM (inactive) | 53.2 µM (inactive) | 1 µM (active) | 1 µM (active) | 30.2 µM (inactive) | 46 µM (inactive) | 46.8 µM (inactive) | 61.2 µM (inactive) | 50 µM (inactive) | 55.1 µM (inactive) | 31.8 µM (inactive) | 50 µM (inactive) | 43 µM (inactive) | 16.7 µM (inactive) | 43.7 µM (inactive) | 44.6 µM (inactive) | –
O=C(Nc1c(O)[nH]c(=S)[nH]c1=O)c1ccc2ccccc2n1 | > 100 µM (inactive) | > 100 µM (inactive) | > 100 µM (inactive) | > 100 µM (inactive) | – | > 100 µM (inactive) | > 100 µM (inactive) | > 100 µM (inactive) | > 100 µM (inactive) | > 100 µM (inactive) | > 100 µM (inactive) | – | – | > 100 µM (inactive) | > 100 µM (inactive) | > 100 µM (inactive) | – | > 100 µM (inactive)
O=[N+]([O-])c1ccc2[nH]nc(OCc3ccccc3Cl)c2c1 | 17.1 µM (inactive) | 91.2 µM (inactive) | 29.9 µM (inactive) | > 10 µM (inactive) | > 100 µM (inactive) | 20.5 µM (inactive) | > 100 µM (inactive) | 26.5 µM (inactive) | > 100 µM (inactive) | > 100 µM (inactive) | 81.5 µM (inactive) | 54.2 µM (inactive) | – | 25 µM (inactive) | 42.6 µM (inactive) | 27.4 µM (inactive) | 27.2 µM (inactive) | 23.4 µM (inactive)
CN/C(=N\n1cnnc1)OC | > 100 µM (inactive) | > 100 µM (inactive) | – | > 100 µM (inactive) | > 100 µM (inactive) | > 100 µM (inactive) | > 100 µM (inactive) | > 100 µM (inactive) | – | > 100 µM (inactive) | – | > 100 µM (inactive) | > 100 µM (inactive) | > 100 µM (inactive) | > 100 µM (inactive) | > 100 µM (inactive) | > 100 µM (inactive) | > 100 µM (inactive)
CC[C@]12C=CCN3CCC4(c5cc([C@@]6(C(=O)OC)CC7CN(CCc8c6[nH]c6ccccc86)C[C@@H]6CCC[C@H]76)c(OC)cc5N(C)C4[C@](O)(C(=O)OC)C1OC(C)=O)C32 (some centres not stated) | 0.0188 µM (active) | 0.218 µM (active) | – | 0.122 µM (active) | 0.00318 µM (active) | 0.526 µM (active) | 0.122 µM (active) | 0.0324 µM (active) | 0.423 µM (active) | 0.157 µM (active) | 0.0621 µM (active) | 0.968 µM (active) | 0.0127 µM (active) | 0.316 µM (active) | 0.0986 µM (active) | 0.108 µM (active) | 0.179 µM (active) | 0.061 µM (active)
O=C1C2[C@@H](C(=O)N1c1ccc(Br)cc1)C13C(=CC2([N+](=O)[O-])[C@@H]2C(=O)N(c4ccc(Br)cc4)C(=O)[C@@H]21)c1ccccc1N3c1ccccc1 (some centres not stated) | > 100 µM (inactive) | – | > 100 µM (inactive) | > 100 µM (inactive) | – | > 100 µM (inactive) | 46.7 µM (inactive) | – | > 100 µM (inactive) | > 100 µM (inactive) | > 100 µM (inactive) | > 100 µM (inactive) | – | 13.7 µM (inactive) | > 100 µM (inactive) | – | > 100 µM (inactive) | > 100 µM (inactive)
O=c1[nH]c(=O)n(COCCO)cc1-c1ccccc1 | > 100 µM (inactive) | > 100 µM (inactive) | > 100 µM (inactive) | > 100 µM (inactive) | > 100 µM (inactive) | > 100 µM (inactive) | > 100 µM (inactive) | > 100 µM (inactive) | > 100 µM (inactive) | > 100 µM (inactive) | – | > 100 µM (inactive) | > 100 µM (inactive) | > 100 µM (inactive) | > 100 µM (inactive) | > 100 µM (inactive) | > 100 µM (inactive) | > 100 µM (inactive)
CC(OC(C)(C)C)C(NC(=O)C(CCCCNC(=O)OC(C)(C)C)NC(=O)C(Cc1c[nH]c2ccccc12)NC(=O)C(N)Cc1ccccc1)C(=O)NC(Cc1ccccc1)C(=O)N[C@@H]1CCC[C@@H]1C(=O)O (some centres not stated) (H-[ξF][ξW][ξK](Boc)[ξT](tBu)[ξF]-X29) | 20.7 µM (inactive) | 51.4 µM (inactive) | – | 47.1 µM (inactive) | 37.2 µM (inactive) | 30.3 µM (inactive) | 36.2 µM (inactive) | 11.1 µM (inactive) | 28.2 µM (inactive) | > 100 µM (inactive) | 59.6 µM (inactive) | > 100 µM (inactive) | 27 µM (inactive) | > 100 µM (inactive) | > 100 µM (inactive) | 39.5 µM (inactive) | 16.7 µM (inactive) | 37.1 µM (inactive)
